Data published in article PMC10893172, “Identification of Triazolopyrimidinyl Scaffold SARS-CoV-2 Papain-Like Protease (PL^pro) Inhibitor” (Pharmaceutics, 2024).
Read-outs that look alike come from different tables or passages of the source.

Experiments:
[1] = target: SARS-CoV-2 papain-like protease (PL^pro) (Severe acute respiratory syndrome coronavirus 2, UniProt P0DTD1); experiment: biochemical
[2] = test system: SARS-CoV and SARS-CoV-2 PL^pro protein; conditions: known PL^pro inhibitors, literature values; cited from earlier work
[3] = 0.2 µM PL^pro, 30 µM substrate, 30 min preincubation at 25 °C, endpoint fluorescence after 2 h, triplicate, read-out: IC50

Compound	IC50 [1, 3] [µM]	IC50 [2] [µM]	further results
Cc1ccc(C)c(NC(=O)Cn2nc3n(C)c(=O)c4c(c(-c5ccccc5)cn4C)n3c2=O)c1 [Hit 922]	439 ± 43	–	–
Cn1nccc1-c1cc(C(=O)NCc2ccc(S(C)(=O)=O)cn2)c(=O)n(-c2cccc(C(F)(F)F)c2)c1 [Hit 903]	881 ± 41	–	–
C[C@H](c1cccc2ccccc12)N1CCC(C(=O)NCc2cccc(F)c2)CC1 [Hit 3K]	–	0.15 ± 0.01	–
O=C(N/N=C/c1cccc(OC2CSC2)c1)c1ccccc1O [Hit 826]	–	–	IC50 [1]: 328 ± 33 µM
Nc1nc2[nH]cnc2c(=S)[nH]1 [Tioguanin (6-TG)]	–	72 ± 12	–
Cc1cc2nn(CC(=O)NCc3ccco3)c(=O)n2c(Nc2ccc(C)c(C)c2)n1 [Hit 372]	82 ± 34	–	–
5-Amino-2-methyl-N-[2-(1-naphthyl)ethyl]-benzamide [GRL0617]	–	1.61 ± 0.09	–
